Reference: BindingDB's records for doi:10.1016/j.bioorg.2016.03.001 (Jishou University, 2016)

Each compound was assayed against Alpha-glucosidase MAL12 (Saccharomyces cerevisiae (strain ATCC 204508 / S288c), UniProt P53341) (assay: In vitro Assay of alpha-Glucosidasee Inhibitory Activity). Conditions: pH 6.8.
Description: The test compounds were dissolved in DMSO to prepare the required distributing concentration. α-Glucosidase inhibitory activity was assayed by using 50 mM phosphate buffer (pH 6.8) at 37 °C. The enzymatic reaction mixture composed of 20 µL α-glucosidase (0.2 U), 10 µL of various concentrations of test compounds and 140 µL of phosphate buffer was incubated at 37 °C for 10 min. Then 0.5 mM p-nitrophenyl α-D-glucopyranoside (30 µL) was added to the mixture as a substrate. After further incubation at 37 °C for 30 min. The absorbance was measured spectrophotometrically at 405 nm. The sample solution was replaced by DMSO as a control. Acarbose was used as a positive control. All experiments were carried out in triplicates.

Sequence of Alpha-glucosidase MAL12 (P53341 whole entry): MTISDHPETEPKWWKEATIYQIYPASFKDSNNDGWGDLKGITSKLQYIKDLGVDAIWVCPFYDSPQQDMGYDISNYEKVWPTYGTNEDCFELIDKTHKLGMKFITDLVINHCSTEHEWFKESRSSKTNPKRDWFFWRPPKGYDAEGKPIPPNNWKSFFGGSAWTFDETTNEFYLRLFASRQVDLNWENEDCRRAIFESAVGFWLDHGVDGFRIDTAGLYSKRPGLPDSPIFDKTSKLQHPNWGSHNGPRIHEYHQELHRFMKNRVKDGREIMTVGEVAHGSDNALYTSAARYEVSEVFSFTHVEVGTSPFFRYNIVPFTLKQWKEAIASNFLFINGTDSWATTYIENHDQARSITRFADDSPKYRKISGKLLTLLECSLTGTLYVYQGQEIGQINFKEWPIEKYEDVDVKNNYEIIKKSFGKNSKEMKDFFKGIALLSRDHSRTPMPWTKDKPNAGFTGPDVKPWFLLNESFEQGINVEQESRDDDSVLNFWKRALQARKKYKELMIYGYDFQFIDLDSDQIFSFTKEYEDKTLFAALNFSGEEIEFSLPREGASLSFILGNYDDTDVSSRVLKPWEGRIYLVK

SMILES	IC50
O=C(N/N=C/c1cccc(F)c1)c1nc(-c2cc3ccccc3oc2=O)cs1 [(E)-N'-(3-Fluorobenzylidene)-4-(2-oxo-2H-chromen-3-yl)thiazole-2-carbohydrazide (7q)]	22.6 µM
O=C(N/N=C/c1ccc(O)cc1)c1nc(-c2cc3ccccc3oc2=O)cs1 [(E)-N'-(4-Hydroxybenzylidene)-4-(2-oxo-2H-chromen-3-yl)thiazole-2-carbohydrazide (7c)]	25.2 µM
O=C(N/N=C/c1ccccc1O)c1nc(-c2cc3ccccc3oc2=O)cs1 [(E)-N'-(2-Hydroxybenzylidene)-4-(2-oxo-2H-chromen-3-yl)thiazole-2-carbohydrazide (7b)]	37.2 µM
COc1ccc(/C=N/NC(=O)c2nc(-c3cc4ccccc4oc3=O)cs2)cc1 [(E)-N'-(4-Methoxybenzylidene)-4-(2-oxo-2H-chromen-3-yl)thiazole-2-carbohydrazide (7a)]	81.7 µM
O=C(N/N=C/c1ccccc1F)c1nc(-c2cc3ccccc3oc2=O)cs1 [(E)-N'-(2-Fluorobenzylidene)-4-(2-oxo-2H-chromen-3-yl)thiazole-2-carbohydrazide (7p)]	23.6 µM
COc1ccccc1/C=N/NC(=O)c1nc(-c2cc3ccccc3oc2=O)cs1 [(E)-N'-(2-Methoxybenzylidene)-4-(2-oxo-2H-chromen-3-yl)thiazole-2-carbohydrazide (7s)]	64.3 µM
O=C(N/N=C/c1ccc(O)c(O)c1)c1nc(-c2cc3ccccc3oc2=O)cs1 [(E)-N'-(3,4-Dihydroxybenzylidene)-4-(2-oxo-2H-chromen-3-yl)thiazole-2-carbohydrazide (7k)]	18.2 µM
O=C(N/N=C/c1ccc(C(F)(F)F)cc1)c1nc(-c2cc3ccccc3oc2=O)cs1 [(E)-4-(2-Oxo-2H-chromen-3-yl)-N'-(4-(trifluoromethyl)benzylidene)thiazole-2-carbohydrazide (7o)]	16 µM
COc1ccc(/C=N/NC(=O)c2nc(-c3cc4ccccc4oc3=O)cs2)c(O)c1 [(E)-N'-(2-Hydroxy-4-methoxybenzylidene)-4-(2-oxo-2Hchromen-3-yl)thiazole-2-carbohydrazide (7i)]	29.9 µM
O=C(N/N=C/c1ccc(O)c(F)c1)c1nc(-c2cc3ccccc3oc2=O)cs1 [(E)-N'-(3-Fluoro-4-hydroxybenzylidene)-4-(2-oxo-2Hchromen-3-yl)thiazole-2-carbohydrazide (7g)]	16.6 µM

The next compounds have a lower IC50 than those just listed; values first:

IC50	SMILES
14 µM	O=C(N/N=C/c1cccc(Br)c1)c1nc(-c2cc3ccccc3oc2=O)cs1 [(E)-N'-(3-bromobenzylidene)-4-(2-oxo-2H-chromen-3-yl)thiazole-2-carbohydrazide (7r)]
12 µM	O=C(N/N=C/c1cccc(Cl)c1)c1nc(-c2cc3ccccc3oc2=O)cs1 [(E)-N'-(3-Chlorobenzylidene)-4-(2-oxo-2H-chromen-3-yl)thiazole-2-carbohydrazide (7n)]
10.6 µM	O=C(N/N=C/c1ccc(Cl)cc1)c1nc(-c2cc3ccccc3oc2=O)cs1 [(E)-N'-(4-Chlorobenzylidene)-4-(2-oxo-2H-chromen-3-yl)thiazole-2-carbohydrazide (7m)]
10.2 µM	CC(C)(C)c1cc(/C=N/NC(=O)c2nc(-c3cc4ccccc4oc3=O)cs2)c(O)c(C(C)(C)C)c1 [(E)-N'-(3,5-Di-tert-butyl-2-hydroxybenzylidene)-4-(2-oxo-2Hchromen-3-yl)thiazole-2-carbohydrazide (7d)]
8.23 µM	O=C(N/N=C/c1cc(Cl)ccc1O)c1nc(-c2cc3ccccc3oc2=O)cs1 [(E)-N'-(5-Chloro-2-hydroxybenzylidene)-4-(2-oxo-2Hchromen-3-yl)thiazole-2-carbohydrazide (7h)]
